Experiments:
[1] = test system: CXCL1(1-72) binding to heparan sulfate (HS); test: Competition with CXCL1 for binding to immobilized HS; set-up: species or system murine; settings: n ≥ 3, Figure 6A; for reduction of CXCL1 binding to HS: mean; for maximum inhibition of CXCL1 binding to HS: maximum achieved
Protocol: (§1) The ability of the COOH-terminal peptides of CXCL9 and CXCL4 to compete for GAG binding with the inflammatory chemokines CXCL8 and CXCL1 was evaluated on heparin-binding plates [BD Biosciences or produced by Jason Whittle (School of Engineering/Future Industries Institute, University of South Australia, Australia)] ([42], [47]). In brief, GAGs (heparin, HS, and CS; Iduron; 25 µg/ml) were coated overnight at room temperature. Dilutions of COOH-terminal CXCL9 or CXCL4 peptide combined with recombinant human CXCL8(1-77) or recombinant murine CXCL1(1-72) (Peprotech, Rocky Hill, NJ, USA) were added in duplicate and incubated for 2 h at 37°C. Subsequently, bound CXCL8 or CXCL1 was detected with biotinylated polyclonal rabbit anti-human CXCL8 or biotinylated polyclonal goat anti-mouse CXCL1 (Peprotech) and horse radish peroxidase-labeled streptavidin. Finally, the peroxidase activity was quantified at 450 nm.
(§2) Competition between CXCL1 and COOH-terminal CXCL9 peptides for binding to immobilized heparan sulfate (HS) (A) and chondroitin sulfate (CS) (B) was performed. […] Bound CXCL1 was detected with biotinylated polyclonal goat anti-mouse CXCL1 antibodies. The mean (± SEM) percentage inhibition of CXCL1 binding to GAGs is indicated on the y-axis (n ≥ 3). Statistical comparison of the different competitors with CXCL9(74–103) was performed using the Mann–Whitney U-test.

[2] = test system: CXCL8(1-77) binding to cellular GAGs on CHO cells; test: Competition with biotinylated CXCL8 for binding to CHO cells, flow cytometry; assay type: cell-based, Chinese hamster; settings: mean, n ≥ 4, Figure 3C (300 nM CXCL8)
Protocol: Binding of biotinylated CXCL9(74-103) and CXCL9(74-93) to CHO cells was assessed by flow cytometry as recently described ([42]). Briefly, cells were detached with phosphate-buffered saline (PBS) with 0.02% ethylenediaminetetraacetic acid (EDTA) and incubated with NH2-terminally biotinylated peptides. Subsequently, cells were incubated with streptavidin-allophycocyanin (BD Biosciences, San Jose, CA, USA) and analyzed by flow cytometry (FACSCalibur, BD Biosciences). To confirm inhibition of sulfation of cellular GAGs, part of the cells were stained with a mouse monoclonal anti-human HS antibody (Immunosource, Schilde, Belgium) and a secondary phycoerythrin-labeled goat anti-mouse antibody (BD Biosciences). Finally, cells were analyzed by flow cytometry. Analogously, binding of 100 nM biotinylated CXCL8 in the presence or absence of CXCL9(74-103) or CXCL9(74-93) was compared on CHO cells.
Figure 3 CXCL9(74-93) competes with CXCL8 for binding to heparin, heparan sulfate (HS), and cellular glycosaminoglycans (GAGs). Competition between CXCL8 and COOH-terminal CXCL9 or CXCL4 peptides for binding to immobilized heparin (A) or HS (B) and to Chinese hamster ovary (CHO) cells (C) was performed. […] Bound CXCL8 was detected with biotinylated anti-human CXCL8 antibodies. (C) Binding of NH2-terminally biotinylated CXCL8(1-77) (300 nM) to CHO cells in the presence or absence of an excess CXCL9 peptide was detected by streptavidin-allophycocyanin and flow cytometry. The mean (± SEM) percentage inhibition of binding of CXCL8(1-77) to heparin, HS or cellular GAGs is indicated on the y-axis (n ≥ 4). Statistical comparison of the different competitors with CXCL9(74–103) was performed using the Mann–Whitney U-test (*p < 0.05).

[3] = test system: CXCL1(1-72) binding to chondroitin sulfate (CS); test: Competition with CXCL1 for binding to immobilized CS; set-up: species or system murine; settings: n ≥ 3, Figure 6B; for maximum inhibition of CXCL1 binding to CS: maximum achieved
Protocol: as §1, §2

[4] = test system: CXCL8-induced neutrophil migration; test: CXCL8-induced neutrophil migration to the peritoneal cavity; assay type: in vivo, mouse (NMRI); settings: for neutrophils in the peritoneal cavity upon CXCL8: significant; for neutrophils in the peritoneal cavity upon CXCL8 / percentage of neutrophils in the peritoneal cavity upon CXCL8: n ≥ 5
Protocol: In vivo neutrophil extravasation to the peritoneal or the knee cavity was examined, respectively, by intraperitoneal or intra-articular injection, of endotoxin-free recombinant CXCL8(1-77) (PeproTech) or vehicle (PBS) in female NMRI or C57BL/6 mice, as described previously ([42], [48]). Simultaneously, synthetic CXCL9 peptide was co-injected either intraperitoneally or injected intravenously. After 2 h (peritoneal cavity) or 3 h (knee cavity), mice were sacrificed. The peritoneal cavity was washed with saline enriched with 2% FCS and 20 U/ml heparin and total leukocyte counts were determined. For the preparation of cytospins, 10^5 cells were used and absolute number and percentage of neutrophils in the lavages were determined in duplicate independently by two researchers by differential microscopic counting. The cells present in the tibiofemoral articulation were harvested by washing the cavity with 10 µl of 3% (w/v) bovine serum albumin in PBS and diluted in 90 µl of 3% (w/v) bovine serum albumin in PBS. The number of total leukocytes was determined by counting leukocytes in a Neubauer chamber after staining with Turk’s solution. Differential counts were obtained from cytospin preparations by evaluating the percentage of each leukocyte type on a slide stained with May-Grunwald-Giemsa solution.
Figure 4 The COOH-terminal peptides of CXCL9 inhibit CXCL8-induced neutrophil migration to the peritoneal cavity. CXCL8(1-77) was injected into the peritoneal cavity of NMRI mice (n ≥ 5) simultaneously with an intraperitoneal (A) or intravenous (B,C) injection of CXCL9(74-103) or CXCL9(74–93). The number of neutrophils in the peritoneal cavity, 2 h post injection, were evaluated by differentially counting the leukocyte subtypes on Hemacolor-stained cytospins. The neutrophil counts are shown for every individual mouse, and the horizontal lines denote the median percentage. To detect statistically significant differences, the Mann–Whitney U-test was carried out (*p < 0.05; **p < 0.01; ***p < 0.005).

Row | Substance | reduction of CXCL1 binding to HS ([1]; 10-fold molar excess) | maximum inhibition of CXCL1 binding to HS [1] | competition for CXCL1 binding to HS [1] | inhibition of binding of biotinylated CXCL8 to cellular GAGs ([2]; 30-fold excess of peptide) | inhibition of binding of biotinylated CXCL8 to cellular GAGs ([2]; 100-fold excess of peptide) | maximum inhibition of CXCL1 binding to CS [3] | amount needed for same reduction of CXCL1 binding to CS relative to CXCL9(74-103) [3] | neutrophils in the peritoneal cavity upon CXCL8 ([4]; 66 µg peptide i.v. (equal molar amount to 108 µg CXCL9(74-103)), CXCL8 i.p., control 192 × 10^4, Figure 4C) | percentage of neutrophils in the peritoneal cavity upon CXCL8 ([4]; 66 µg peptide i.v., CXCL8 i.p., control 19%, Figure 4C) | potency against CXCL8 relative to CXCL9(74-103) ([4]; i.v., peritoneal model, Figure 4C) | reduction of CXCL1 binding to HS ([1]; threefold molar excess compared to CXCL1) | reduction of CXCL8-induced neutrophil recruitment to peritoneal cavity ([4]; 12 µg peptide i.p., Figure 4A) | reduction of CXCL8-induced neutrophil recruitment to peritoneal cavity ([4]; 36 µg peptide i.p., Figure 4A) | neutrophil influx to peritoneal cavity upon CXCL8 ([4]; 36 µg peptide i.v., not significant, Figure 4B) | neutrophils in the peritoneal cavity upon CXCL8 ([4]; 108 µg peptide i.p. co-injected with 1 µg CXCL8 i.p., NMRI, 2 h, CXCL8 alone about 142 × 10^4, Figure 4A) | percentage of neutrophils in the peritoneal cavity upon CXCL8 ([4]; 108 µg peptide i.p. co-injected with 1 µg CXCL8 i.p., NMRI, 2 h, Figure 4A) | reduction of CXCL8-induced neutrophil migration to peritoneal cavity ([4]; lower doses i.v., Figure 4B) | percentage of neutrophils in the peritoneal cavity upon CXCL8 ([4]; peptide i.v. (highest dose tested, dose not given), CXCL8 i.p., control 16.5%, Figure 4B) | neutrophils in the peritoneal cavity upon CXCL8 ([4]; peptide i.v. (highest dose tested, dose not given), CXCL8 i.p., control 148 × 10^4, Figure 4B)
1 | 74KKKQKNGKKHQKKKVLKVRK93 [CXCL9(74-93), COOH-terminal peptide of CXCL9 lacking the 10 COOH-terminal amino acids of CXCL9(74-103)] | 39% | 52% | less potent competitor than CXCL9(74-103) | 31% | 50% | 52% | three times more | 65 × 10^4 neutrophils | 8.25% | equally potent inhibitor of CXCL8 than CXCL9(74-103) |  |  |  |  |  |  |  |  | 
2 | 74KKKQKNGKKHQKKKVLKVRKSQRSRQKKTT103 [CXCL9(74-103), COOH-terminal peptide of CXCL9] |  | 72% |  | 53% |  | 63% |  |  |  |  | 43% | failed to reduce CXCL8-induced neutrophil recruitment | failed to reduce CXCL8-induced neutrophil recruitment | a trend toward a lower neutrophil influx | 45 × 10^4 neutrophils | 6.6% | not able to reduce the neutrophil migration significantly | 10.1% | 81 × 10^4 neutrophils
